Legend:
[1] = Cytotoxicity assay (MTT) in Vero cells; assay type: cell-based; conditions: African green monkey, Vero cells (African green monkey kidney cells), compound concentration that produces 50% of cytotoxicity
Method: We then investigated whether the new amidinourea derivatives 5a–k could affect HSV-1 and HSV-2 replication. We first assessed cell cytotoxicity of the compounds in African green monkey kidney cells (Vero) to rule out the possibility that antiviral activity was related to the cytotoxic effects of the drug (Table 1). Vero cells were seeded at a density of 3 × 10^4/well in a 96-well culture plate. After 24 h, the cells were treated with different dilutions of drugs, or mock-treated using the same amount of vehicle solution (DMSO). Forty-eight hours after treatment, cell viability was determined using a standard 3-(4,5-dimethylthiazol-2-yl)-2,5-diphenyltetrazolium bromide (MTT) assay. The compounds were considered non-toxic only if they maintained at least 70% cell viability after 48 h of treatment.
To determine the cytotoxicity of amidinourea derivatives, Vero cells were seeded in a 96-well culture plate and exposed to increasing concentrations of either compounds or vehicle (DMSO) the following day. After 48 h of incubation, the number of viable cells was determined using the 3-(4,5-dimethylthiazol-2-yl)-2,5-diphenyltetrazolium bromide (MTT) (Sigma-Aldrich, Milan, Italy) assay, as previously described.
(§1) Data were presented as the mean value and standard error of the mean (SEM). Data were analyzed by means of GraphPad Prism 5 software (GraphPad Software, Inc., La Jolla, CA, USA). Statistical analysis was performed using one-way ANOVA with Bonferroni’s post-test; p < 0.05 was considered statistically significant. The IC50 e CC50 values were calculated using the online tool Quest Graph™ IC50 Calculator, AAT Bioquest, Inc., Sunnyvale, CA, USA, https://www.aatbio.com/tools/ic50-calculator (accessed on 4 May 2021).

HSV-1 = assay: Virus yield reduction assay (plaque titration) HSV-1; assay type: cell-based, Herpes simplex virus type 1 (clinical isolate) in Vero cells; conditions: for antiviral activity against HSV-1 (in words): virus yield reduction, Vero cells, MOI 0.1, 48 h, 100 µM (50 µM for 5f and 5k); for IC50: Human alphaherpesvirus 1, HSV-1, Vero cells, MOI 0.1, 2 h pre-treatment, 48 h, plaque assay, read-out: IC50 values (compound concentration required to inhibit 50% of viral infectivity)
Method: (§2) Vero cells were seeded at a density of 3 × 10^5/well in a 24-well culture plate. Twenty-four hours later, the cells were pre-treated with the different drugs for 2 h at 37 °C, and then infected in duplicate with HSV-1 or HSV-2 at an MOI of 0.1, in the presence of the compounds; following virus adsorption, the viral inoculum was removed and cultures were exposed to the compounds for 48 h. The extent of HSV-1 and HSV-2 replication was then assessed by titrating the infectivity of supernatants and cell-associated viruses using a standard plaque assay in Vero cells. Plaques were microscopically counted, and the mean plaque counts for each drug concentration were expressed as plaque-forming units per milliliter (PFU/mL) (Figure 3).
(§3) The African green monkey kidney cells (Vero, ATCC CCL-81™) were cultured in Dulbecco’s Modified Eagle’s Medium, supplemented with 10% heat inactivated fetal bovine serum (FBS), 2 mM glutamine, 1 mM sodium pyruvate, 100 U/mL penicillin and 100 µg/mL streptomycin sulfate (Sigma-Aldrich, Milan, Italy). Clinical isolates of HSV-1 and HSV-2 were a generous gift from Valeria Ghisetti, Amedeo di Savoia Hospital, Turin, Italy. They were propagated and titrated by plaque assay on Vero cells, as previously described.
(§4) Vero cells were seeded in 24-well plates and pre-treated, after 24 h, with different concentrations of the amidinourea derivatives or the vehicle control (DMSO) for 2 h at 37 °C. They were then infected with HSV at MOI of 0.1 PFU/cell in the presence of the compounds. Following virus adsorption (2 h at 37 °C), the viral inoculum was removed, and the cultures were maintained in a medium that contained the corresponding molecule for 48 h. The cells and supernatants were then harvested and disrupted using three freeze (liquid nitrogen)/thaw (37 °C) cycles. The extent of virus replication was subsequently assessed by titrating the infectivity of the supernatants of the cell suspensions in Vero cells, as previously described. Plaques were microscopically counted, and the mean plaque counts for each drug concentration were expressed as PFU/mL.
as §1
(§5) Figure 3 Antiviral activity of 5a–k against HSV-1 and HSV-2. Upper panel. Virus yield reduction assay. Vero cells were treated as described in the manuscript with the indicated compounds. The extent of (A) HSV-1 and (B) HSV-2 replication was then assessed by titrating the infectivity of supernatants and cell-associated viruses using a standard plaque assay in Vero cells. Plaques were microscopically counted, and the mean plaque counts for each molecule were expressed as PFU/mL. Mean ± SEM is shown (***, p < 0.001, one-way ANOVA followed by Bonferroni’s post-tests). Lower panel. Representative light microscopy images of Vero cells infected with (A) HSV-1 or (B) HSV-2 and treated with the indicated compounds, as described for virus yield reduction assay. Original magnification: 20×.
Figure 4 (A) Vero cells were infected with HSV-1 and, where indicated, the cells were treated with increasing concentrations of the indicated compounds, before and during virus adsorption. These remained in the culture media throughout the experiment. The extent of HSV-1 replication was then assessed by titrating the infectivity of supernatants and cell-associated viruses—obtained from freeze (liquid nitrogen)/thaw (37 °C) cycles—and combined using a standard plaque assay. […]

HSV-2 = assay: Virus yield reduction assay (plaque titration) HSV-2; assay type: cell-based, Herpes simplex virus type 2 (clinical isolate) in Vero cells; conditions: Vero cells, MOI 0.1, 48 h, 100 µM (50 µM for 5f and 5k)
Method: as §2, §3, §4
as §5, with “Representative light microscopy images of Vero cells infected with (A) HSV-1 or (B) HSV-2 and treated with the indicated compounds, as described for virus yield reduction assay. Original magnification: 20×.” left out

ICP27 and gD (HSV-1) = assay: Western blot of viral gene expression in HSV-1-infected Vero cells; assay type: cell-based, HSV-1 in Vero cells; conditions: MOI 0.3, various times post infection, immunoblotting
Method: (§6) Finally, to identify the phase of HSV replication program that is affected by amidinourea derivatives, the effects of 5i compound on viral gene expression was investigated in HSV-1 and HSV-2-infected cells. To this end, the total protein cell extracts were prepared from HSV-infected Vero cells treated with 5i, or vehicle control, for various lengths of time post infection. The expression patterns of ICP27, for HSV-1, ICP8, for HSV-2, gD, for HSV-1 and HSV-2, were then examined via immunoblotting with specific antibodies and were used as a reflection of the levels of immediate-early/early (ICP27, ICP8) and late (gD) viral products, respectively. […] However, the precise mechanism exploited by amidinourea derivatives to carry out their antiviral activity against HSV still deserves to be elucidated and is beyond the goals of the present communication.
(§7) After treatment, the cells were washed with phosphate-buffered saline (PBS), and cell lysis was carried out using radioimmunoprecipitation assay (RIPA) buffer to obtain total cell lysate. […]
(§8) Figure 5 Vero cells were mock infected or infected with HSV-1 (A) or HSV-2 (B) at an MOI of 0.3. Protein levels of ICP27 (HSV-1), ICP8 (HSV-2) and gD (HSV-1/2) were assessed at different times post infection (hpi) by Western blotting (upper panels). […]

ICP8 and gD (HSV-2) = assay: Western blot of viral gene expression in HSV-2-infected Vero cells; assay type: cell-based, HSV-2 in Vero cells; conditions: MOI 0.3, various times post infection, immunoblotting
Method: as §6, §7, §8

Compound: N=C(NC(=O)NCCNc1ccccc1)Nc1ccc(Cl)cc1 [Compound 5e]
- CC50 at 48 h [1]: 142 µM

Compound: N=C(NC(=O)N1CCOCC1)Nc1ccc(Cl)cc1 [Compound 5d]
- antiviral activity against HSV-1 (in words) (HSV-1): more pronounced against HSV-1
- CC50 at 48 h [1]: 1560 µM

Compound: N=C(NC(=O)NCc1ccc(Cl)cc1)Nc1ccc(Cl)cc1 [Compound 5a]
- CC50 at 48 h [1]: 168 µM

Compound: N=C(NC(=O)N1CCN(C23CC4CC(CC(C4)C2)C3)CC1)Nc1ccc(Cl)cc1 [Compound 5k]
- antiviral activity against HSV-2 (in words) (HSV-2): very strong activity
- IC50 (HSV-1): 18.5 µM
- antiviral activity against HSV-1 (in words) (HSV-1): very strong activity
- CC50 at 48 h [1]: 86.7 µM

Compound: N=C(NC(=O)N1CCN(c2ccccc2)CC1)Nc1ccc(Cl)cc1 [Compound 5i]
- expression of viral proteins ICP27 and gD (HSV-1) (ICP27 and gD (HSV-1)): overall decrease of viral proteins
- antiviral activity against HSV-2 (in words) (HSV-2): very strong activity
- expression of viral proteins ICP8 and gD (HSV-2) (ICP8 and gD (HSV-2)): overall decrease of viral proteins
- antiviral activity against HSV-1 (in words) (HSV-1): very strong activity
- CC50 at 48 h [1]: 149 µM

Compound: N=C(NC(=O)N1CCNC(c2ccccc2)C1)Nc1ccc(Cl)cc1 (stereo not drawn) [Compound 5f]
- CC50 at 48 h [1]: 98.6 µM

Compound: CC(NC(=O)NC(=N)Nc1ccc(Cl)cc1)c1ccccc1 (stereo not drawn) [Compound 5b]
- CC50 at 48 h [1]: 196 µM

Compound: N=C(NCc1ccccc1)NC(=O)N1CCN(c2ccc(Cl)cc2)CC1 [Compound 5j]
- antiviral activity against HSV-2 (in words) (HSV-2): very strong activity
- IC50 (HSV-1): 72.1 µM
- antiviral activity against HSV-1 (in words) (HSV-1): very strong activity
- CC50 at 48 h [1]: 177 µM

Compound: Cc1ccc(CNC(=O)NC(=N)Nc2ccc(Cl)cc2)cc1 [Compound 5c]
- CC50 at 48 h [1]: 184 µM

Compound: N=C(N)/N=C(\N)N1CCOCC1 [moroxydine, reference compound]
- antiviral activity against HSV-2 (in words) (HSV-2): does not show any antiviral activity
- antiviral activity against HSV-1 (in words) (HSV-1): does not show any antiviral activity

Compound: N=C(NCc1ccccc1)NC(=O)N1CCN(c2ccccc2)CC1 [Compound 5g]
- CC50 at 48 h [1]: 246 µM

Compound: N=C(NCc1ccccc1)NC(=O)N1CCN(c2ccc(F)cc2)CC1 [Compound 5h]
- CC50 at 48 h [1]: 389 µM

Source: publication PMC8398393, “Synthesis and Biological Evaluation of Amidinourea Derivatives against Herpes Simplex Viruses” (Molecules, 2021)
